Measured values: patent publication US20120004200A1, “TOPICAL PHARMACEUTICAL COMPOSITION CONTAINING A WATER-SENSITIVE ACTIVE PRINCIPLE” (GALDERMA S.A., priority 2008, published 2012)
Where two headings read alike, the source gives them in different places.

Experiments:
[1] = Stability of calcitriol in various solvent oils; format: physicochemical; details: RT
Method: In order to optimize the dissolution of the active agent to be incorporated into the compositions according to the invention, stability tests are performed in various solvent oils: The preparations are prepared according to the following proportions: 0.00666% of calcitriol/0.29629% of BHT, a sufficient amount of solvent oil to obtain 100%. Assay technique by HPLC against reference substance.

[2] = T 3 months, 4% hydroquinone
Method: The preparations are prepared according to the following proportions: 4% of hydroquinone, a sufficient amount of solvent oil to obtain 100%.
(§1) Assay technique by HPLC against reference substance.

[3] = Stability of rucinol in various solvent oils; format: physicochemical; details: 40° C., T 1 month, 5% rucinol
Method: The preparations are prepared according to the following proportions: 5% of rucinol, a sufficient amount of solvent oil to obtain 100%.
as §1

[4] = Stability of ivermectin in various solvent oils; format: physicochemical; details: 40° C., T 1 month, 1% ivermectin
Method: The preparations are prepared according to the following proportions: 1% of ivermectin, a sufficient amount of solvent oil to obtain 100%.
as §1

C=C1/C(=C\C=C2/CCC[C@]3(C)[C@@H]([C@H](C)CCCC(C)(C)O)CC[C@@H]23)C[C@@H](O)C[C@@H]1O [Calcitriol, calcitriol]
% Calcitriol/To ([1]; solvent PPG-15 stearyl ether, T 1 month): 100.00% | % Calcitriol/To ([1]; solvent caprylic/capric triglycerides, T 1 month, 0.00666% calcitriol, 0.29629% BHT): 100.3% | % Calcitriol/To ([1]; solvent caprylic/capric triglycerides, T 3 months): 99.9% | % Calcitriol/To ([1]; solvent diisopropyl adipate, T 1 month): 101.5% | % Calcitriol/To ([1]; solvent diisopropyl adipate, T 3 months): 97.2% | % Calcitriol/To ([1]; solvent octyldodecanol, T 1 month): 98.3% | % Calcitriol/To ([1]; solvent octyldodecanol, T 3 months): 95.00%

Oc1ccc(O)cc1 [Hydroquinone, hydroquinone]
% Hydroquinone/To ([2]; solvent PPG-15 stearyl ether, 40° C.): 96.00% | % Hydroquinone/To ([2]; solvent caprylic/capric triglycerides, 40° C.): 95.00% | % Hydroquinone/To ([2]; solvent diisopropyl adipate, temperature not given): 97.4%

CCCCc1ccc(O)cc1O [Rucinol, rucinol]
% Rucinol (% LC) ([3]; solvent PEG-8 caprylic/capric triglycerides): 100 % LC | % Rucinol (% LC) ([3]; solvent PEG-35 castor oil): 96 % LC | % Rucinol (% LC) ([3]; solvent PPG-15 stearyl ether): 95 % LC | % Rucinol (% LC) ([3]; solvent caprylic/capric triglycerides): 99 % LC

ivermectin
% Ivermectin/To ([4]; solvent PPG-15 stearyl ether): 98.07% | % Ivermectin/To ([4]; solvent benzyl alcohol): 98.6% | % Ivermectin/To ([4]; solvent diisopropyl adipate): 96.7% | % Ivermectin/To ([4]; solvent phenoxyethanol): 98.6%
